Assay results taken from EPA's ToxValDB 9.5 (doi:10.2903/j.efsa.2005.45r).

Tests used:
Colinus virginianus = conditions: oral
Apis mellifera = conditions: acute; duration: 48 hours; oral; unspecified; mortality
Daphnia magna = conditions: chronic/long-term; duration: 21 days; reproduction
Canidae = conditions: subchronic; duration: 90 days; oral; Dog Other; body weight
Aphidius rhopalosiphi = conditions: acute; duration: 7 days; mortality
Tagia sp. = conditions: acute; mortality
Rattus norvegicus = conditions: for NOAEL: chronic
Chrysoperla externa = conditions: not reported; mortality
[1] = short-term, oral, feed, mortality

CCS(=O)(=O)c1cccnc1S(=O)(=O)NC(=O)Nc1nc(OC)cc(OC)n1 [Rimsulfuron]
LC50 (Colinus virginianus; acute, diet, mortality): > 5620 mg/kg | LD50 (Colinus virginianus; acute, mortality): > 2250 mg/kg | NOEC (Colinus virginianus; short-term, diet): 5620 mg/kg-day | LD50 (Apis mellifera): > 100 µg/piece | NOEC (Daphnia magna): 1 mg/L | LD50 (Anas platyrhynchos; acute, oral, unspecified, mortality): > 2250 mg/kg | NOAEL (Anas platyrhynchos; reproductive): 1250 mg/kg | NOEC (Anas platyrhynchos; short-term, oral, feed): 5620 mg/kg | LC50 (Anas platyrhynchos; [1]): > 5620 mg/kg | LD50 (Anas platyrhynchos; [1]): > 1610 mg/kg-day | NOAEL (Canidae): 9.63 mg/kg-day | LEL (Aphidius rhopalosiphi): < 37.5 g/ha | LC50 (Oncorhynchus mykiss; acute, duration: 96 hours, mortality): > 390 µg/mL | NOEC (Oncorhynchus mykiss; chronic/long-term, duration: 21 days, growth): 125 mg/L | LC50 (Tagia sp.): > 1000 mg/kg | LD50 (Rattus norvegicus; acute, oral, mortality): > 5000 mg/kg | NOAEL (Rattus norvegicus): 3000 mg/kg-day | NOAEL (Rattus norvegicus; duration: 2 years, oral, body weight): 11.8 mg/kg-day | LEL (Chrysoperla externa): 37500 g/ha
